These results are taken from US8338482B2, “Modulating notch1 signaling pathway for treating neuroendocrine tumors” (Wisconsin Alumni Research Foundation, priority 2007, dated 2012).

Data set [1] has as its system Notch1. The data set is described as follows: CBF1 binding site luciferase reporter assay. Type of data set: cell-based, human. To be noted: DAPT 50 μM pretreatment 45 minutes, then 4 mM VPA. The protocol:
Luciferase Reporter Assays GI carcinoid tumor cells were transiently transfected with luciferase constructs as previously described (Kunnimalaiyaan, M. et al., Conservation of the Notch1 signaling pathway in gastrointestinal carcinoid cells A J Physiol Gastrointest Liver Physiol 2005; 289:G636-642). Wild-type (4xwtCBF1Luc; 2 μg) or mutant (4xmutCBF1Luc; 2 μg) CBF1-luciferase reporter plasmids were co-transfected with CMV-β-gal (0.5 μg) (Hsieh J J et al., Truncated Mammalian Notch1 Activates CBF1/RBPJk-Repressed Genes by a Mechanism Resembling That of Epstein-Barr Virus EBNA2. Mol Cell Biol 1996; 16:952-959). In experiments with the γ-secretase inhibitor, N-[N-(3,5-difluorophenacetyl)-L-alanyl]-S-phenylglycine t-butyl ester (DAPT; EMD Biosciences, Darmstadt, Germany), to inhibit Notch1 cleavage and activation, cells were pretreated for 45 minutes with DAPT (50 μM) then treated with 4 mM VPA. […] Luciferase levels were measured using a Monolight 2010 Luminometer (Analytical Luminescence Laboratory, San Diego, Calif.). […]
For orientation: In a reporter assay the amount or activity of a reporter protein is the signal.

In data set [2] the test system is MEK. The data set is described as follows: MEK inhibitors and Notch1-mediated hormone suppression. The class given is cell-based, human. Conditions: PD098059 25-50 uM or U0126 5-20 uM pre-treatment. As for the experimental part: 1) MEK inhibitors. BON, BON-Notch1, H727, H727-Notch1, TT, and TT-Notch1 cells are pre-treated with either PD098059 (25-50 uM) or U0126 (5-20 uM) (both well-characterized MEK inhibitors) (Sippel R S, et al., Am J Physiol Gastrointest Liver Physiol 2003; 285:G245-G254; Sippel R S, et al., Surgery 2003; 134:866-871), alone or in combination, followed by addition of control or doxycycline (1 μg) for 24, 48, and 96 hours. Cells are then analyzed with the following methods.
2) Confirmation of MEK inhibition. To confirm MEK inhibition after treatment with PD098059 and U0126, cellular extracts are analyzed by Western blots utilizing antibodies against MEK, phospho-MEK, ERK1/2, and phospho-ERK1/2. MAPK in vitro kinase assay with a commercially available kit (Cell Signal Technology) is used to confirm blockade of MEK activity.
3) hASH1 and NE marker expression. To determine if MEK inhibition blocks Notch1-mediated NE marker suppression, cellular extracts are analyzed using western blots with hASH1, chromogranin A, synaptophysin, and neuron-specific enolase, and serotonin or calcionin secretion will be assessed using an ELISA assay, as described above.

The test system of data set [3] is BON human GI carcinoid cancer cells. The data set is described as follows: Western blot analysis of GI carcinoid cells. The class given is cell-based. As for the experimental part: Cell Culture BON human GI carcinoid cancer cells, kindly provided by Drs. B. Mark Evers and Courtney M. Townsend, Jr.
Total protein concentrations were quantified with a bicinchoninic acid assay kit (Pierce Biotechnology, Rockford, Ill., USA). Denatured cellular extracts were resolved by SDS-PAGE, transferred to nitrocellulose membranes (Schleicher and Schuell, Keene, N.H., USA), blocked in milk, and incubated with appropriate antibodies. The antibody dilutions were: 1:1,000 for Notch1 (Santa Cruz Biotechnology, Santa Cruz, Calif., USA), mammalian achaete-scute homolog 1 (ASCL1; BD Biosciences, San Diego, Calif., USA), chromogranin A (Zymed Laboratories, San Francisco, Calif., USA), and cyclin D1 (Cell Signaling Technology, Danvers, Mass., USA), 1:2,000 for p21 (Cell Signaling Technology) and p27 (Santa Cruz Biotechnology), and 1:10,000 for glyceraldehyde-3-phosphate dehydrogenase (G3PDH; Trevigen, Gaithersburg, Md., USA). Horseradish peroxidase conjugated goat anti-rabbit or goat anti-mouse secondary antibodies (Pierce Biotechnology) were used depending on the source of the primary antibody. For visualization of the protein signal, Immunstar (Bio-Rad Laboratories, Hercules, Calif., USA) or SuperSignal West Femto (Pierce Biotechnology) kits were used per the manufacturer's instructions.
Cell Culture BON human gastrointestinal (GI) carcinoid tumor cells, kindly provided by Drs. B. Mark Evers and Courtney M. Townsend, Jr.
Total protein concentrations were quantified with a bicinchoninic acid assay kit (Pierce Biotechnology, Rockford, Ill.). Denatured cellular extracts were resolved by SDS-PAGE, transferred onto nitrocellulose membranes (Schleicher and Schuell, Keene, N H), blocked in milk, and incubated with appropriate antibodies. The antibody dilutions were: 1:1,000 for Notch1 (Santa Cruz Biotechnology, Santa Cruz, Calif.), mammalian achaete-scute homolog 1 (ASCL1; BD Biosciences, San Diego, Calif.), chromogranin A (Zymed Laboratories, San Francisco, Calif.), and cyclin D1 (Cell Signaling Technology, Danvers, Mass.), 1:2,000 for p21 (Cell Signaling Technology) and p27 (Santa Cruz Biotechnology), and 1:10,000 for glyceraldehyde-3-phosphate dehydrogenase (G3PDH; Trevigen, Gaithersburg, Md.). Horseradish peroxidase conjugated goat anti-rabbit or goat anti-mouse secondary antibodies (Pierce Biotechnology) were used depending on the source of the primary antibody. For visualization of the protein signal, Immunstar (Bio-Rad Laboratories, Hercules, Calif.) or SuperSignal West Femto (Pierce Biotechnology) kits were used per the manufacturer's instructions.
(In general: In western blotting, separated proteins are transferred to a membrane and probed.)

The test system of data set [4] is H727 human lung carcinoid cancer cells. Description: Western blot analysis of pulmonary carcinoid cells. Type of data set: cell-based.
The test system of data set [5] is carcinoid tumor cells. To be noted: cited from earlier work.
The subject of data set [6] is hASH1. Conditions: small cell lung cancer cells; cited from earlier work.

Regarding `C[C@H](NC(=O)Cc1cc(F)cc(F)c1)C(=O)N[C@H](C(=O)OC(C)(C)C)c1ccccc1` [DAPT, N-[N-(3,5-difluorophenacetyl)-L-alanyl]-S-phenylglycine t-butyl ester], in data set [1], the “effect of VPA on CBF1 binding” value is given as “blocked the effect of VPA on CBF1 binding”. As for `COc1cccc(-c2cc(=O)c3ccccc3o2)c1N` [PD098059], the Notch1-mediated hormone suppression entry in data set [2] is on record as “block”. `O=C(CCCCCCC(=O)Nc1ccccc1)NO` [SAHA, suberoylanilide hydroxamic acid]: the ASCL1 protein result is “undetectable level” in data set [3] (30 μM, 2 days); “dose-dependent decrease” in data set [3] (SBHA/SAHA treatment, 48 hours); “dose-dependent decrease” in data set [4] (SBHA/SAHA treatment, 48 hours). In addition, the “chromogranin A level” value is “only modest inhibition” in data set [3] (SBHA/SAHA, 2 days of treatment) and “complete suppression” in data set [4] (50 μM, 2 days). In data set [4] (48 hours), the “concentrations at which significant Notch1 induction was seen” value fell in the range of 20 to 30 µM. On to `N#CC(=C(/N)Sc1ccccc1N)/C(C#N)=C(\N)Sc1ccccc1N` [U0126], for which, in data set [2], the Notch1-mediated hormone suppression result is “block”.

On to `CCCC(=O)[O-].[Na+]` [sodium butyrate], for which, in data set [5], the “cyclin D1” value is reported as “concomitant downregulation”; the “p21 and p27” value is “increase”. As to `CC(/C=C/C(=O)NO)=C\[C@@H](C)C(=O)c1ccc(N(C)C)cc1` [trichostatin A], in data set [5], the “cyclin D1” value was “concomitant downregulation”; the “p21 and p27” value is “increase”.

Take “c5p25: hASH1 anti-sense oligonucleotide 5′-UCCUACUAAGGCUGC-3′ (SEQ ID NO: 2) (listed as RNA, chemistry not given here)”: the hASH1 expression result in data set [6] is reported as “minimal hASH1 inhibitory activity”.

Take “c5p1476: hASH1 anti-sense oligonucleotide 5′-GGAGCCCACUGCUUU-3′ (SEQ ID NO: 1), directed at the hASH1 3′UTR (listed as RNA, chemistry not given here)”: the hASH1 expression result in data set [6] was “very potent inhibitor”. For “c5pMiss1: missense oligonucleotide 5′-GCUACAUCUGGUCGC-3′ (SEQ ID NO: 3) (listed as RNA, chemistry not given here)”, the hASH1 expression result in data set [6] is listed as “no affect”. For the compound “c5pMiss2: missense oligonucleotide 5′-CACUGAUGCACCUGU-3′ (SEQ ID NO: 4) (listed as RNA, chemistry not given here)”, the hASH1 expression entry in data set [6] was “no affect”.
